Data from patent US20090306093A1, “METHOD FOR TREATING PATIENT HAVING BENIGN PROSTATE HYPERPLASIA” (KAOHSIUNG MEDICAL UNIVERSITY, priority 2008, published 2009).

Molecular target: T1, a1A-adrenoceptor (Rattus norvegicus, UniProt P43140)
T1 construct: The submaxillary glands, spleen, and aorta of rats were separately homogenized; from tissue; host or cells: Wistar rat submaxillary gland membranes
T1 sequence (P43140 1-466): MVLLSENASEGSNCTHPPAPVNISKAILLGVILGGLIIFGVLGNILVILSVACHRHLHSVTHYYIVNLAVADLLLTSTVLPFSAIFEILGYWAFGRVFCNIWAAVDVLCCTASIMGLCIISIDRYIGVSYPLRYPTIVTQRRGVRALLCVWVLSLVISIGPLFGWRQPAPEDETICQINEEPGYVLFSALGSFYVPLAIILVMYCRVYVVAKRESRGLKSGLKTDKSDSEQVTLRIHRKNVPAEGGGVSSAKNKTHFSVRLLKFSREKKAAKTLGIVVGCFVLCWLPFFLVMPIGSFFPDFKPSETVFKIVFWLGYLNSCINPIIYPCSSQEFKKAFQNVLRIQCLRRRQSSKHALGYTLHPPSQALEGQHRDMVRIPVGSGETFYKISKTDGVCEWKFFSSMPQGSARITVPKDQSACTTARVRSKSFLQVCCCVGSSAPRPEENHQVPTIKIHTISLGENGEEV
Test: [3H]-prazosin competition binding, rat submaxillary gland membranes
Description: Wistar rats were obtained from National Laboratory Animal Breeding and Research Center (Taipei, Taiwan) and housed under a constant temperature and controlled illumination. The submaxillary glands, spleen, and aorta of rats were separately homogenized for 30 seconds with a Kinematica polytron in 20 volumes of ice-cold TE buffer (10 mM Tris HCl, 1 mM EDTA, 0.1 mM ascorbic acid, pH 7.4). The homogenate was filtered under pressure through muslin and the filtrate was centrifuged at 1,000 g for 10 minutes. The supernatant was centrifuged again at 10,000 g for 12 minutes at 4° C. The second supernatant was centrifuged at 30,000 g for 15 minutes at 4° C., and the final pellet was resuspended in the assay buffer (75 mM Tris HCl, 25 mM MgCl2, pH 7.4). Protein content was determined by Bradford's method.
[^3H]-prazosin, KMUP-1 and membranes (200-300 μg) were incubated for 60 minutes at 25° C. with or without the addition of nonspecific binding agents, in a 75 mM Tris HCl buffer with 25 mM MgCl2, making a final volume of 500 μL. In this experiment, non-specific binding was defined by use of 10 μM phentolamine. In competitive-binding experiments, the competing agent was added directly to the incubation mixture. The incubation was terminated by adding 1 mL of ice cold assay buffer followed by immediate filtration through Whatman GF/C glass fiber filters supported on a 12-port filter manifold (Whatman Int. Ltd, Springfield Mill, Maidstone, UK). The filters were immediately washed 3 times with 5 mL of ice-cold assay buffer and dried in an oven at 60° C. for 2 hours before adding 5 mL of Triton-toluene based scintillation fluid. Membrane-bound radioligand trapped in the filters was counted in a Beckman LS6500 scintillation system (Fullerton, Calif.) with an efficiency of 45%. In each experiment, nonspecifically bound radioligand agents were measured by incubating membrane protein. Specific binding was then obtained by deducting this value from the total binding of radioligand agents for each sample.

Cn1c(=O)c2c(ncn2CCN2CCN(c3ccccc3Cl)CC2)n(C)c1=O [KMUP-1, 7-[2-[4-(2-Chlorobenzene)piperazinyl]ethyl]-1,3-dimethyl xanthine]
Selective Ratio a1A/a1B: 5 | Selective Ratio a1A/a1D: 1 | Ki (rat submaxillary glands, [3H]-prazosin, read-out: Receptor Affinity (pKi) a1A (converted)): 20.4 nM
